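How tested: cells in 96-well plates exposed to compound for 48 hours at five concentrations. At the GI50, growth is halved.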 Calls of active or inactive are those of the source. Rule as the data show it: active = GI50 up to about 1.1 µM and inactive = higher.
Tests used:
Test in all cases: growth of human tumour cells (NCI), 48 h
[1] = test system: 786-0
[2] = test system: ACHN
[3] = test system: CCRF-CEM
[4] = test system: EKVX
[5] = test system: HOP-92
[6] = test system: M14
[7] = test system: NCI-H23
[8] = test system: OVCAR-4
[9] = test system: OVCAR-8
[10] = test system: RXF 393
[11] = test system: SK-MEL-28
[12] = test system: TK-10
[13] = test system: UACC-257
[14] = test system: UACC-62

Measured: GI50

COc1ccc(S(=O)(=O)N(C)CC(=O)O)cc1
inactive: [1] > 100 µM | [2] > 100 µM | [3] > 100 µM | [4] > 100 µM | [5] > 100 µM | [6] > 100 µM | [7] > 100 µM | [8] > 100 µM | [9] > 100 µM | [10] > 100 µM | [11] > 100 µM | [12] > 100 µM | [13] > 100 µM | [14] > 100 µM

Cc1ccc(C(=O)/C=C/c2ccccc2O)c(C)c1
inactive: [1] > 100 µM | [2] > 100 µM | [3] 30.1 µM | [4] > 100 µM | [5] > 100 µM | [6] > 100 µM | [7] > 100 µM | [8] > 100 µM | [9] > 100 µM | [10] > 100 µM | [11] > 100 µM | [12] > 100 µM | [13] > 100 µM | [14] > 100 µM

COc1ccccc1/C=N/N=C(\N)NO
inactive: [1] 23 µM | [2] 8.22 µM | [3] 16.7 µM | [4] 18.9 µM | [5] 11 µM | [7] 45.2 µM | [8] 38.4 µM | [9] > 10 µM | [10] 28 µM | [11] 21.3 µM | [13] 29.1 µM | [14] 4.21 µM

O=C1Nc2ccccc2C1(O)C/C(=N/O)c1ccc2ccccc2c1 (stereo not given)
inactive: [1] > 100 µM | [2] > 100 µM | [3] 47.2 µM | [4] > 100 µM | [6] > 100 µM | [7] 71.9 µM | [8] > 100 µM | [9] > 100 µM | [10] 58.9 µM | [11] > 100 µM | [12] > 100 µM | [13] > 100 µM

CN(c1ccccc1)C(c1ccccc1)C(O)c1ccccc1 (stereo not given)
inactive: [1] 18.2 µM | [2] 22.6 µM | [3] 26.7 µM | [4] 25.1 µM | [5] 29.9 µM | [6] 16.6 µM | [7] 22.4 µM | [8] 18.1 µM | [9] 19.2 µM | [11] 20.5 µM | [12] 24.2 µM | [13] 19.3 µM | [14] 17.9 µM

Cc1cc(NC(=O)C2C3C=CC(O3)C2C(=O)O)no1 (stereo not given)
inactive: [1] 17.4 µM | [2] 39.7 µM | [3] 19.1 µM | [4] > 100 µM | [5] > 100 µM | [6] > 100 µM | [7] > 100 µM | [8] 88.1 µM | [9] 16.2 µM | [10] 16.4 µM | [11] 97.7 µM | [12] > 100 µM | [13] 35 µM | [14] > 100 µM

Cc1ccc(S(=O)(=O)OC2CC=CC2)cc1
inactive: [1] > 100 µM | [2] > 100 µM | [3] > 100 µM | [4] > 100 µM | [5] > 100 µM | [6] > 100 µM | [8] > 100 µM | [9] > 100 µM | [10] > 100 µM | [11] > 100 µM | [12] > 100 µM | [13] > 100 µM | [14] > 100 µM

CCOC(=O)C(C)(NC(=O)c1ccc(NCc2ccc3nc(NC(=O)c4ccccc4)nc(NC(=O)c4ccccc4)c3c2)cc1)C(=O)OCC
inactive: [1] 3.19 µM | [2] 8.17 µM | [4] 19 µM | [5] 5.62 µM | [6] 13 µM | [7] 9.86 µM | [8] 2.09 µM | [9] 4.68 µM | [10] 2.39 µM | [11] 8.18 µM | [12] 19.9 µM | [13] 13.5 µM | [14] 8.49 µM

CC(C)c1cc2c(O)c(c1)Cc1cc(C(C)C)cc(c1O)Cc1cc(C(C)C)cc(c1O)Cc1cc(C(C)C)cc(c1O)C2
inactive: [1] > 100 µM | [3] > 100 µM | [4] > 100 µM | [5] > 100 µM | [7] > 100 µM | [8] > 100 µM | [9] > 100 µM | [10] > 100 µM | [12] > 100 µM | [13] > 100 µM | [14] > 100 µM

O=C1NC(=O)C(CCC(=O)c2ccc3ccccc3c2)C(=O)N1
inactive: [1] > 100 µM | [2] > 100 µM | [3] > 100 µM | [4] > 100 µM | [5] > 100 µM | [6] > 100 µM | [7] > 100 µM | [8] > 100 µM | [9] > 100 µM | [10] > 100 µM | [11] > 100 µM | [12] > 100 µM | [13] > 100 µM | [14] > 100 µM

C=CCC1(C(=O)OC(C)(C)C)C(OC)=C(C(=O)OC(C)(C)C)C2C1C(C(=O)OC(C)(C)C)=C(OC)C2(CC=C)C(=O)OC(C)(C)C (stereo not given)
inactive: [1] > 100 µM | [2] > 100 µM | [3] > 100 µM | [4] > 100 µM | [5] > 100 µM | [6] > 100 µM | [7] > 100 µM | [9] > 100 µM | [10] > 100 µM | [11] > 100 µM | [12] 64.6 µM | [13] > 100 µM | [14] > 100 µM

CC(=O)NNc1nc(C)c(C(=O)NNC(=O)C(=O)Nc2c([N+](=O)[O-])ccc(C)c2C)s1
inactive: [1] > 100 µM | [2] > 100 µM | [3] 31 µM | [4] > 100 µM | [5] > 100 µM | [6] > 100 µM | [7] > 100 µM | [8] 52.8 µM | [9] > 100 µM | [11] > 100 µM | [12] > 100 µM | [13] > 100 µM | [14] > 100 µM

COc1cc(C2C(C(=O)O)=C(C)Oc3cc4c(cc32)OCO4)cc(OC)c1OC (stereo not given)
inactive: [1] 37.2 µM | [2] 45.2 µM | [3] 29.9 µM | [4] 58.5 µM | [5] > 100 µM | [6] 59 µM | [7] 54.2 µM | [8] 50.8 µM | [9] 51.2 µM | [10] 11.6 µM | [11] 26.4 µM | [12] 88.3 µM | [13] 39.6 µM | [14] 11.7 µM

CC(O)CN1C(=O)NC(Cc2ccccc2)C1=O (stereo not given)
inactive: [1] > 100 µM | [2] > 100 µM | [4] > 100 µM | [5] > 100 µM | [6] > 100 µM | [7] > 100 µM | [9] > 100 µM | [10] > 100 µM | [11] > 100 µM | [12] > 100 µM | [13] > 100 µM

Cc1cc2c(c(C(N)=O)c1C)-c1ccccc1C2=O
inactive: [1] > 100 µM | [2] > 100 µM | [3] > 100 µM | [4] > 100 µM | [5] > 100 µM | [6] > 100 µM | [7] > 100 µM | [8] > 100 µM | [9] > 100 µM | [10] > 100 µM | [11] > 100 µM | [12] > 100 µM | [13] > 100 µM | [14] > 100 µM

COc1ccccc1N1C(=O)/C(=C/c2ccc(N(CCC#N)CCC#N)cc2C)N=C1c1cc([N+](=O)[O-])ccc1Cl
inactive: [1] > 100 µM | [2] > 100 µM | [3] > 100 µM | [4] > 100 µM | [6] 68.2 µM | [7] > 100 µM | [8] 20.6 µM | [9] > 100 µM | [11] > 100 µM | [12] > 100 µM | [13] > 100 µM

CC(=O)Nc1cc(N(CCOS(C)(=O)=O)CCOS(C)(=O)=O)ccc1N=O
inactive: [1] > 100 µM | [2] > 100 µM | [3] > 100 µM | [5] > 100 µM | [6] > 100 µM | [7] > 100 µM | [8] > 100 µM | [9] > 100 µM | [11] > 100 µM | [12] > 100 µM | [13] > 100 µM | [14] > 100 µM

OCCCOC(c1ccccc1)(c1ccccc1)c1ccccc1
inactive: [1] > 100 µM | [2] > 100 µM | [3] > 100 µM | [5] 20.6 µM | [6] > 100 µM | [7] 75.7 µM | [8] > 100 µM | [9] > 100 µM | [11] > 100 µM | [12] > 100 µM | [13] > 100 µM | [14] 88.5 µM
active: [10] < 0.01 µM

COc1cccc(SSc2cccc(OC)c2C(=O)O)c1C(=O)O
inactive: [1] > 100 µM | [2] > 100 µM | [3] > 100 µM | [4] > 100 µM | [5] > 100 µM | [6] > 100 µM | [7] > 100 µM | [8] > 100 µM | [9] > 100 µM | [10] > 100 µM | [11] > 100 µM | [12] > 100 µM | [13] > 100 µM | [14] > 100 µM

CCC(Oc1ccc(OC)c2ccccc(=O)c12)C(=O)O (stereo not given)
inactive: [1] > 100 µM | [2] > 100 µM | [3] > 100 µM | [4] > 100 µM | [6] > 100 µM | [7] > 100 µM | [8] > 100 µM | [9] > 100 µM | [10] > 100 µM | [11] > 100 µM | [12] > 100 µM | [13] > 100 µM | [14] > 100 µM

NCCCC(N)(C(=O)O)C(F)F (stereo not given) [EFLORNITHINE]
inactive: [1] > 100 µM | [2] > 100 µM | [3] > 1580 µM | [5] > 1890 µM | [6] > 100 µM | [7] > 5000 µM | [8] > 5000 µM | [10] > 5000 µM | [11] > 5000 µM | [12] > 100 µM | [13] > 5000 µM | [14] > 5000 µM

Source: ChEMBL document CHEMBL1201862, “PubChem BioAssay data set” (2004)
